# Results reported in the supplement of paper PMC4862054.
# Where “and” joins values, the source holds several entries; their conditions need not be identical. Equal values may be shown once.
# Test system: HCC1143
# Test: drug sensitivity score (DSS), CellTiter-Blue viability (DSS (AUC-based score)); higher = stronger viability inhibition; extreme values may be limits of the assay
# Details: incubation time: 72 h
# Method: (§1)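 DSRT with the CellTiter-Blue (resazurin reduction) viability readout, fluorescence 560/590 nm, 72 h incubation. Plates were normalised to DMSO and benzethonium chloride controls. DSS is computed from the area under the fitted dose-response curve (5 or 9 concentrations).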
row,SMILES,drug sensitivity score
1,CC[C@@H]1C(=O)N(C)c2cnc(Nc3ccc(C(=O)NC4CCN(C)CC4)cc3OC)nc2N1C1CCCC1 [BI 2536],13.2
2,O=C(O)C1(C(=O)O)CCC1.[NH2-].[NH2-].[Pt+2] [Carboplatin],0
3,C1CN1c1nc(N2CC2)nc(N2CC2)n1 [Triethylenemelamine],0
4,NCCCNCCSP(=O)(O)O [Amifostine],0
5,C=CC(=O)N1CCC[C@@H](n2nc(-c3ccc(Oc4ccccc4)cc3)c3c(N)ncnc32)C1,0
6,Cc1cnc(NC(=O)Nc2cc(Br)c(C)cc2OC[C@@H]2CNCCO2)cn1,0
7,CC(=O)Nc1cccc(-n2c(=O)n(C3CC3)c(=O)c3c(Nc4ccc(I)cc4F)n(C)c(=O)c(C)c32)c1,9.72
8,CC[C@H](Nc1ncnc2[nH]cnc12)c1nc2cccc(F)c2c(=O)n1-c1ccccc1 [CAL-101],1.48

# Test system: HCC1599
# Test: as above
# Details: incubation time: 72 h
# Method: as §1
row,SMILES,drug sensitivity score
1,Nc1nc(F)nc2c1ncn2[C@@H]1O[C@H](CO)[C@@H](O)[C@@H]1O [Fludarabine],0
2,O=C(/C=C/c1cccnc1)NCCCCC1CCN(C(=O)c2ccccc2)CC1 [FK-866],18.7
3,CC[C@@H]1C(=O)N(C)c2cnc(Nc3ccc(C(=O)NC4CCN(C)CC4)cc3OC)nc2N1C1CCCC1 [BI 2536],0
4,O=C(O)C1(C(=O)O)CCC1.[NH2-].[NH2-].[Pt+2] [Carboplatin],0
5,C1CN1c1nc(N2CC2)nc(N2CC2)n1 [Triethylenemelamine],0
6,NCCCNCCSP(=O)(O)O [Amifostine],3.86
7,C=CC(=O)N1CCC[C@@H](n2nc(-c3ccc(Oc4ccccc4)cc3)c3c(N)ncnc32)C1,0
8,Cc1cnc(NC(=O)Nc2cc(Br)c(C)cc2OC[C@@H]2CNCCO2)cn1,2.32
9,CC(=O)Nc1cccc(-n2c(=O)n(C3CC3)c(=O)c3c(Nc4ccc(I)cc4F)n(C)c(=O)c(C)c32)c1,8.87
10,CC[C@H](Nc1ncnc2[nH]cnc12)c1nc2cccc(F)c2c(=O)n1-c1ccccc1 [CAL-101],3.9

# Test system: HCC1937
# Test: as above
# Details: incubation time: 72 h
# Method: as §1
row,SMILES,drug sensitivity score
1,Nc1nc(F)nc2c1ncn2[C@@H]1O[C@H](CO)[C@@H](O)[C@@H]1O [Fludarabine],4.57
2,Nc1ncn([C@H]2C[C@H](O)[C@@H](CO)O2)c(=O)n1 [Decitabine],3.95 and 4.59
3,O=C(/C=C/c1cccnc1)NCCCCC1CCN(C(=O)c2ccccc2)CC1 [FK-866],7.6
4,CC[C@@H]1C(=O)N(C)c2cnc(Nc3ccc(C(=O)NC4CCN(C)CC4)cc3OC)nc2N1C1CCCC1 [BI 2536],22.8
5,O=C(O)C1(C(=O)O)CCC1.[NH2-].[NH2-].[Pt+2] [Carboplatin],0
6,C1CN1c1nc(N2CC2)nc(N2CC2)n1 [Triethylenemelamine],0
7,NCCCNCCSP(=O)(O)O [Amifostine],0
8,C=CC(=O)N1CCC[C@@H](n2nc(-c3ccc(Oc4ccccc4)cc3)c3c(N)ncnc32)C1,0
9,Cc1cnc(NC(=O)Nc2cc(Br)c(C)cc2OC[C@@H]2CNCCO2)cn1,5.26
10,CC(=O)Nc1cccc(-n2c(=O)n(C3CC3)c(=O)c3c(Nc4ccc(I)cc4F)n(C)c(=O)c(C)c32)c1,0
11,CC[C@H](Nc1ncnc2[nH]cnc12)c1nc2cccc(F)c2c(=O)n1-c1ccccc1 [CAL-101],0

# Test system: HDQ-P1
# Test: as above
# Details: incubation time: 72 h
# Method: as §1
row,SMILES,drug sensitivity score
1,Nc1nc(F)nc2c1ncn2[C@@H]1O[C@H](CO)[C@@H](O)[C@@H]1O [Fludarabine],0
2,Nc1ncn([C@H]2C[C@H](O)[C@@H](CO)O2)c(=O)n1 [Decitabine],0
3,O=C(/C=C/c1cccnc1)NCCCCC1CCN(C(=O)c2ccccc2)CC1 [FK-866],9.7
4,CC[C@@H]1C(=O)N(C)c2cnc(Nc3ccc(C(=O)NC4CCN(C)CC4)cc3OC)nc2N1C1CCCC1 [BI 2536],5.37
5,O=C(O)C1(C(=O)O)CCC1.[NH2-].[NH2-].[Pt+2] [Carboplatin],0
6,C1CN1c1nc(N2CC2)nc(N2CC2)n1 [Triethylenemelamine],0
7,NCCCNCCSP(=O)(O)O [Amifostine],0
8,C=CC(=O)N1CCC[C@@H](n2nc(-c3ccc(Oc4ccccc4)cc3)c3c(N)ncnc32)C1,1.18
9,Cc1cnc(NC(=O)Nc2cc(Br)c(C)cc2OC[C@@H]2CNCCO2)cn1,0
10,CC(=O)Nc1cccc(-n2c(=O)n(C3CC3)c(=O)c3c(Nc4ccc(I)cc4F)n(C)c(=O)c(C)c32)c1,12.7
11,CC[C@H](Nc1ncnc2[nH]cnc12)c1nc2cccc(F)c2c(=O)n1-c1ccccc1 [CAL-101],2.23

# Test system: Hs578T
# Test: as above
# Details: incubation time: 72 h
# Method: as §1
row,SMILES,drug sensitivity score
1,Nc1nc(F)nc2c1ncn2[C@@H]1O[C@H](CO)[C@@H](O)[C@@H]1O [Fludarabine],0
2,Nc1ncn([C@H]2C[C@H](O)[C@@H](CO)O2)c(=O)n1 [Decitabine],0
3,O=C(/C=C/c1cccnc1)NCCCCC1CCN(C(=O)c2ccccc2)CC1 [FK-866],25.5
4,CC[C@@H]1C(=O)N(C)c2cnc(Nc3ccc(C(=O)NC4CCN(C)CC4)cc3OC)nc2N1C1CCCC1 [BI 2536],8.18
5,O=C(O)C1(C(=O)O)CCC1.[NH2-].[NH2-].[Pt+2] [Carboplatin],0
6,C1CN1c1nc(N2CC2)nc(N2CC2)n1 [Triethylenemelamine],0
7,NCCCNCCSP(=O)(O)O [Amifostine],0
8,C=CC(=O)N1CCC[C@@H](n2nc(-c3ccc(Oc4ccccc4)cc3)c3c(N)ncnc32)C1,0
9,Cc1cnc(NC(=O)Nc2cc(Br)c(C)cc2OC[C@@H]2CNCCO2)cn1,1.59
10,CC(=O)Nc1cccc(-n2c(=O)n(C3CC3)c(=O)c3c(Nc4ccc(I)cc4F)n(C)c(=O)c(C)c32)c1,0
11,CC[C@H](Nc1ncnc2[nH]cnc12)c1nc2cccc(F)c2c(=O)n1-c1ccccc1 [CAL-101],0

# Test system: MDA-MB-231
# Test: as above
# Details: incubation time: 72 h
# Method: as §1
row,SMILES,drug sensitivity score
1,Nc1nc(F)nc2c1ncn2[C@@H]1O[C@H](CO)[C@@H](O)[C@@H]1O [Fludarabine],0
2,O=C(/C=C/c1cccnc1)NCCCCC1CCN(C(=O)c2ccccc2)CC1 [FK-866],15.6
3,CC[C@@H]1C(=O)N(C)c2cnc(Nc3ccc(C(=O)NC4CCN(C)CC4)cc3OC)nc2N1C1CCCC1 [BI 2536],16.4
4,O=C(O)C1(C(=O)O)CCC1.[NH2-].[NH2-].[Pt+2] [Carboplatin],0
5,C1CN1c1nc(N2CC2)nc(N2CC2)n1 [Triethylenemelamine],2.85
6,NCCCNCCSP(=O)(O)O [Amifostine],0
7,C=CC(=O)N1CCC[C@@H](n2nc(-c3ccc(Oc4ccccc4)cc3)c3c(N)ncnc32)C1,0
8,Cc1cnc(NC(=O)Nc2cc(Br)c(C)cc2OC[C@@H]2CNCCO2)cn1,0
9,CC(=O)Nc1cccc(-n2c(=O)n(C3CC3)c(=O)c3c(Nc4ccc(I)cc4F)n(C)c(=O)c(C)c32)c1,21.7
10,CC[C@H](Nc1ncnc2[nH]cnc12)c1nc2cccc(F)c2c(=O)n1-c1ccccc1 [CAL-101],0

# Test system: MDA-MB-436
# Test: as above
# Details: incubation time: 72 h
# Method: as §1
row,SMILES,drug sensitivity score
1,Nc1nc(F)nc2c1ncn2[C@@H]1O[C@H](CO)[C@@H](O)[C@@H]1O [Fludarabine],0
2,O=C(/C=C/c1cccnc1)NCCCCC1CCN(C(=O)c2ccccc2)CC1 [FK-866],22.3
3,CC[C@@H]1C(=O)N(C)c2cnc(Nc3ccc(C(=O)NC4CCN(C)CC4)cc3OC)nc2N1C1CCCC1 [BI 2536],7.37
4,O=C(O)C1(C(=O)O)CCC1.[NH2-].[NH2-].[Pt+2] [Carboplatin],0
5,C1CN1c1nc(N2CC2)nc(N2CC2)n1 [Triethylenemelamine],0
6,NCCCNCCSP(=O)(O)O [Amifostine],0
7,C=CC(=O)N1CCC[C@@H](n2nc(-c3ccc(Oc4ccccc4)cc3)c3c(N)ncnc32)C1,0
8,Cc1cnc(NC(=O)Nc2cc(Br)c(C)cc2OC[C@@H]2CNCCO2)cn1,3.49
9,CC(=O)Nc1cccc(-n2c(=O)n(C3CC3)c(=O)c3c(Nc4ccc(I)cc4F)n(C)c(=O)c(C)c32)c1,0
10,CC[C@H](Nc1ncnc2[nH]cnc12)c1nc2cccc(F)c2c(=O)n1-c1ccccc1 [CAL-101],0

# Test system: MDA-MB-453
# Test: as above
# Details: incubation time: 72 h
# Method: as §1
row,SMILES,drug sensitivity score
1,Nc1nc(F)nc2c1ncn2[C@@H]1O[C@H](CO)[C@@H](O)[C@@H]1O [Fludarabine],0
2,O=C(/C=C/c1cccnc1)NCCCCC1CCN(C(=O)c2ccccc2)CC1 [FK-866],27.2
3,CC[C@@H]1C(=O)N(C)c2cnc(Nc3ccc(C(=O)NC4CCN(C)CC4)cc3OC)nc2N1C1CCCC1 [BI 2536],23
4,O=C(O)C1(C(=O)O)CCC1.[NH2-].[NH2-].[Pt+2] [Carboplatin],1.79
5,C1CN1c1nc(N2CC2)nc(N2CC2)n1 [Triethylenemelamine],1.28
6,NCCCNCCSP(=O)(O)O [Amifostine],0
